Experimental findings from patent US20050101595A1, “N-containing cycloalkyl-substituted amino-thiazole derivatives and pharmaceutical compositions for inhibiting cell proliferation and methods for their use” (PFIZER INC., priority 2003, published 2005) are described below.

SMILES strings stand for the structures.

One experiment concerns HCT-116 cell line. Briefly: Inhibition of cell growth, tetrazolium salt (MTT) assay. It is filed as cell-based. The note with it: 0.25 μM compound; HCT-116; Table 2. Put shortly: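 MTT colorimetric viability: three-to-five-day compound exposure in 0.5% (v/v) DMSO at 37° C, MTT 0.2 mg/mL for the last 4 h, A540 compared with vehicle-treated cells.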
Experiment [1] concerns the target human CDK4 and genetically truncated (1-264) cyclin D3 (Homo sapiens, UniProt P11802). Briefly: Inhibition of CDK4/Cyclin D Retinoblastoma Kinase Activity. It is filed as biochemical. As to conditions: 0.03 μM compound; Table 2. Put shortly: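 Human CDK4/truncated cyclin D3 (1-264) complex from baculovirus-infected insect cells, 5 nM, phosphorylating Rb fragment (residues 386-928, His-tagged) with 25 μM [32/33P]ATP in HEPES pH 7.4, MgCl2, 2% DMSO at 30° C. for 20 min (60 min for tight binders). Filter-captured radioactivity by phosphorimager; apparent Ki from competitive or tight-binding fits.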

A further experiment has as its target CDK2/Cyclin A (Homo sapiens, UniProt P24941). Briefly: Inhibition of CDK2/Cyclin A Retinoblastoma Kinase Activity. It is filed as biochemical. The note with it: 0.03 μM compound; Table 2. An outline of the steps: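 Baculovirus-expressed CDK2 complexed with proteolyzed cyclin A (10 or 19 nM), Rb fragment substrate, 25 μM [32P/33P]ATP, HEPES pH 7.4, 30 °C for 60 or 75 min under initial-rate conditions. Filter capture and phosphorimager readout; apparent Ki fitted to competitive or tight-binding competitive inhibition.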

Sequence of human CDK4 and genetically truncated (1-264) cyclin D3 (P11802 whole entry, the tested form may be a part): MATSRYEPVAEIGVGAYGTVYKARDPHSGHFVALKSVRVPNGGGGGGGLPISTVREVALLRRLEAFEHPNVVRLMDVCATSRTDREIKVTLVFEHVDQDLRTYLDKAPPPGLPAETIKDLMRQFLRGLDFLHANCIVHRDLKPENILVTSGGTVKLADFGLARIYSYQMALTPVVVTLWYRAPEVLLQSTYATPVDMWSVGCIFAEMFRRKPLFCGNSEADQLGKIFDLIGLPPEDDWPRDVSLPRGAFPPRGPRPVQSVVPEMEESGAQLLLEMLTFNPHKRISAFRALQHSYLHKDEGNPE
Sequence of human CDK4 and genetically truncated (1-264) cyclin D3 (P30281 1-264 partner): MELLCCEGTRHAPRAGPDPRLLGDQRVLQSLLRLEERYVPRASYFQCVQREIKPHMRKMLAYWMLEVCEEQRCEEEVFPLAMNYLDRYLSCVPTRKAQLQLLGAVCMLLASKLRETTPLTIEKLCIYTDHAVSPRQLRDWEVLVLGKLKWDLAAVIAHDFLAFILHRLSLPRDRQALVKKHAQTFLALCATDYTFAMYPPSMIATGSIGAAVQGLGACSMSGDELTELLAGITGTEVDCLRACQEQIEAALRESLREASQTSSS

As to `Nc1nc(NC2CCN(C(=O)Nc3ccc([N+](=O)[O-])cc3)CC2)sc1C(=O)c1c(F)cccc1F` [Example O36], the “HCT-116 % Inhibition at 0.25 μM” value with HCT-116 cell line stood at 28%. Moreover, in experiment [1], the “CDK4 % Inhibition at 0.03 μM” value was 12%. Further, the “CDK2 % Inhibition At 0.03 μM” value on CDK2/Cyclin A is 23%.
The matching figures for `Nc1nc(NC2CCN(C(=O)NCc3ccccc3)CC2)sc1C(=O)c1c(F)cccc1F` [Example O37]: 34%, 12% and 40%.
The matching figures for `CCOC(=O)NC(=O)N1CCC(Nc2nc(N)c(C(=O)c3c(F)cccc3F)s2)CC1` [Example O38]: 29%, 15% and 29%.
Regarding `COC(=O)c1ccccc1NC(=O)N1CCC(Nc2nc(N)c(C(=O)c3c(F)cccc3F)s2)CC1` [Example O39], the “HCT-116 % Inhibition at 0.25 μM” value in the experiment with HCT-116 cell line came out at 27%. Further, the “CDK4 % Inhibition at 0.03 μM” value in experiment [1] is recorded as 13%. In addition, the “CDK2 % Inhibition At 0.03 μM” value at CDK2/Cyclin A was 32%.
The matching figures for `CC(C)c1ccccc1NC(=O)N1CCC(Nc2nc(N)c(C(=O)c3c(F)cccc3F)s2)CC1` [Example O40]: 3%, 6% and 30%.
For `Cc1ccc(NC(=O)N2CCC(Nc3nc(N)c(C(=O)c4c(F)cccc4F)s3)CC2)c(C)c1` [Example O41] the same measures were 26%, 1% and 33%.
`Cc1ccc(C)c(NC(=O)N2CCC(Nc3nc(N)c(C(=O)c4c(F)cccc4F)s3)CC2)c1` [Example O42]: the “HCT-116 % Inhibition at 0.25 μM” value in the experiment with HCT-116 cell line is listed as 26%. Further, in experiment [1], the “CDK4 % Inhibition at 0.03 μM” value stood at 10%. Besides, the “CDK2 % Inhibition At 0.03 μM” value on CDK2/Cyclin A is reported as 35%.
The matching figures for `N#Cc1cccc(NC(=O)N2CCC(Nc3nc(N)c(C(=O)c4c(F)cccc4F)s3)CC2)c1` [Example O43]: 12%, 10% and 31%.
The matching figures for `COc1cc(NC(=O)N2CCC(Nc3nc(N)c(C(=O)c4c(F)cccc4F)s3)CC2)cc(OC)c1OC` [Example O44]: 29%, 12% and 22%.
The matching figures for `COc1cc(NC(=O)N2CCC(Nc3nc(N)c(C(=O)c4c(F)cccc4F)s3)CC2)cc(OC)c1` [Example O45]: 32%, 17% and 35%.
As to `CCOC(=O)c1cccc(NC(=O)N2CCC(Nc3nc(N)c(C(=O)c4c(F)cccc4F)s3)CC2)c1` [Example O46], the “HCT-116 % Inhibition at 0.25 μM” value in the experiment with HCT-116 cell line came to 41%. The “CDK4 % Inhibition at 0.03 μM” value in experiment [1] was 15%. The “CDK2 % Inhibition At 0.03 μM” value at CDK2/Cyclin A was 29%.
The matching figures for `CC(=O)c1cccc(NC(=O)N2CCC(Nc3nc(N)c(C(=O)c4c(F)cccc4F)s3)CC2)c1` [Example O47]: 35%, 14% and 35%.
The matching figures for `Cc1ccc(NC(=O)N2CCC(Nc3nc(N)c(C(=O)c4c(F)cccc4F)s3)CC2)cc1C` [Example O48]: 16%, 11% and 28%.
As for `Cc1cc(C)cc(NC(=O)N2CCC(Nc3nc(N)c(C(=O)c4c(F)cccc4F)s3)CC2)c1` [Example O49], the “HCT-116 % Inhibition at 0.25 μM” value with HCT-116 cell line was found to be 20%. For the same compound, the “CDK4 % Inhibition at 0.03 μM” value in experiment [1] was −1%. At CDK2/Cyclin A, the “CDK2 % Inhibition At 0.03 μM” value was found to be 33%.
For `COc1ccc(C)cc1NC(=O)N1CCC(Nc2nc(N)c(C(=O)c3c(F)cccc3F)s2)CC1` [Example O50], the “HCT-116 % Inhibition at 0.25 μM” value in the experiment on HCT-116 cell line came out at 62%. For the same compound, the “CDK4 % Inhibition at 0.03 μM” value in experiment [1] was found to be 13%. Moreover, the “CDK2 % Inhibition At 0.03 μM” value on CDK2/Cyclin A was 37%.
For `Nc1nc(NC2CCN(C(=O)Nc3ccc(Cl)c(C(F)(F)F)c3)CC2)sc1C(=O)c1c(F)cccc1F` [Example O51] the same measures were 11%, 7% and 30%.
For `Nc1nc(NC2CCN(C(=O)Nc3ccc(Oc4ccccc4)cc3)CC2)sc1C(=O)c1c(F)cccc1F` [Example O52] the same measures were 33%, 11% and 24%.
The matching figures for `CC(=O)c1ccc(NC(=O)N2CCC(Nc3nc(N)c(C(=O)c4c(F)cccc4F)s3)CC2)cc1` [Example O53]: 41%, 11% and 30%.
Take `Nc1nc(NC2CCN(C(=O)Nc3ccc4ccccc4c3)CC2)sc1C(=O)c1c(F)cccc1F` [Example O54]: the “HCT-116 % Inhibition at 0.25 μM” value in the experiment with HCT-116 cell line is 46%. Besides, in experiment [1], the “CDK4 % Inhibition at 0.03 μM” value is 15%. Besides, the “CDK2 % Inhibition At 0.03 μM” value on CDK2/Cyclin A is reported as 34%.
The matching figures for `Cc1cc(C)c(NC(=O)N2CCC(Nc3nc(N)c(C(=O)c4c(F)cccc4F)s3)CC2)c(C)c1` [Example O55]: 41%, 10% and 28%.
`N#Cc1ccc(NC(=O)N2CCC(Nc3nc(N)c(C(=O)c4c(F)cccc4F)s3)CC2)cc1` [Example O56]: in the experiment on HCT-116 cell line, the “HCT-116 % Inhibition at 0.25 μM” value was 37%. Moreover, the “CDK4 % Inhibition at 0.03 μM” value in experiment [1] was 9%. Besides, the “CDK2 % Inhibition At 0.03 μM” value at CDK2/Cyclin A turned out to be 29%.
The matching figures for `Nc1nc(NC2CCN(C(=O)NCCc3ccccc3)CC2)sc1C(=O)c1c(F)cccc1F` [Example O57]: 41%, −2% and 28%.
As to `CCCCCCNC(=O)N1CCC(Nc2nc(N)c(C(=O)c3c(F)cccc3F)s2)CC1` [Example O58], the “HCT-116 % Inhibition at 0.25 μM” value with HCT-116 cell line is reported as 42%. Further, the “CDK4 % Inhibition at 0.03 μM” value in experiment [1] came out at 6%. For the same compound, the “CDK2 % Inhibition At 0.03 μM” value at CDK2/Cyclin A was determined as 34%.
Take `COC(=O)c1cc(NC(=O)N2CCC(Nc3nc(N)c(C(=O)c4c(F)cccc4F)s3)CC2)cc(C(=O)OC)c1` [Example O59]: the “HCT-116 % Inhibition at 0.25 μM” value in the experiment with HCT-116 cell line was determined as 32%. The “CDK4 % Inhibition at 0.03 μM” value in experiment [1] came out at 7%. The “CDK2 % Inhibition At 0.03 μM” value at CDK2/Cyclin A was 28%.
For `COC(=O)c1cccc(NC(=O)N2CCC(Nc3nc(N)c(C(=O)c4c(F)cccc4F)s3)CC2)c1` [Example O60] the same measures were 39%, 12% and 24%.
For `COC(=O)NC(=O)N1CCC(Nc2nc(N)c(C(=O)c3c(F)cccc3F)s2)CC1` [Example O61] the same measures were 38%, 12% and 33%.
For `Nc1nc(NC2CCN(C(=O)NC(=O)Oc3ccccc3)CC2)sc1C(=O)c1c(F)cccc1F` [Example O62] the same measures were 41%, 18% and 36%.
For the compound `Nc1nc(NC2CCN(C(=O)Nc3ccc(-c4ccccc4)cc3)CC2)sc1C(=O)c1c(F)cccc1F` [Example O63], in the experiment with HCT-116 cell line, the “HCT-116 % Inhibition at 0.25 μM” value was 40%. Also, the “CDK4 % Inhibition at 0.03 μM” value in experiment [1] was determined as 4%. Besides, on CDK2/Cyclin A, the “CDK2 % Inhibition At 0.03 μM” value is recorded as 28%.
